# Assays:
# Format in all cases: in vivo
# Conditions in all cases: 1000 g ai/ha, 0 to 100 scale, 0 no effect, 100 complete control
# [1] = tested on: foxtail, giant (giant foxtail, Setaria faberii); assay: Test A preemergence, foxtail, giant
# Procedure, shortened: (§1)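 Preemergence treatment was a directed soil spray; postemergence plants were 2 to 10 cm tall at the one- to two-leaf stage. Compounds were formulated in solvent with surfactant and grown in loam/sand in the greenhouse. Injury was scored visually against untreated controls after ~10 d, on a 0 (no effect) to 100 (complete control) scale.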
# [2] = tested on: foxtail, giant (giant foxtail, Setaria faberii); assay: Test A postemergence, foxtail, giant
# Procedure, shortened: as §1
# [3] = tested on: pigweed (Amaranthus retroflexus); assay: Test A postemergence, pigweed
# Procedure, shortened: as §1
# [4] = tested on: velvetleaf (Abutilon theophrasti); assay: Test A preemergence, velvetleaf
# Text: (§2) Seeds of plant species selected from barnyardgrass (Echinochloa crus-galli), crabgrass, large (large crabgrass, Digitaria sanguinalis), kochia (Kochia scoparia), ragweed (common ragweed, Ambrosia elatior), morningglory (Ipomoea spp.), velvetleaf (Abutilon theophrasti), ryegrass, Italian (Italian ryegrass, Lolium multiflorum), foxtail, giant (giant foxtail, Setaria faberii), wheat (Triticum aestivum), corn (Zea mays), and pigweed (Amaranthus retroflexus), were planted into a blend of loam soil and sand and treated preemergence with a directed soil spray using test chemicals formulated in a non-phytotoxic solvent mixture which included a surfactant. At the same time, plants selected from these crop and weed species and also blackgrass (Alopecurus myosuroides), and galium (catchweed bedstraw, Galium aparine), were planted in pots containing the same blend of loam soil and sand and treated with postemergence applications of test chemicals formulated in the same manner. Plants ranged in height from 2 to 10 cm and were in the one- to two-leaf stage for the postemergence treatment. Treated plants and untreated controls were maintained in a greenhouse for approximately 10 d, after which time all treated plants were compared to untreated controls and visually evaluated for injury. Plant response ratings, summarized in Table A, are based on a 0 to 100 scale where 0 is no effect and 100 is complete control. A dash (-) response means no test result.
# [5] = tested on: crabgrass, large (large crabgrass, Digitaria sanguinalis); assay: Test A preemergence, crabgrass, large
# Text: as §2
# [6] = tested on: corn (Zea mays); assay: Test A postemergence, corn
# Procedure, shortened: as §1
# [7] = tested on: wheat (Triticum aestivum); assay: Test A preemergence, wheat
# Text: as §2
# [8] = tested on: corn (Zea mays); assay: Test A preemergence, corn
# Text: as §2
# [9] = tested on: velvetleaf (Abutilon theophrasti); assay: Test A postemergence, velvetleaf
# Text: as §2
# [10] = tested on: wheat (Triticum aestivum); assay: Test A postemergence, wheat
# Procedure, shortened: as §1
# [11] = tested on: crabgrass, large (large crabgrass, Digitaria sanguinalis); assay: Test A postemergence, crabgrass, large
# Text: as §2
# [12] = tested on: pigweed (Amaranthus retroflexus); assay: Test A preemergence, pigweed
# Procedure, shortened: as §1
# [13] = tested on: morningglory (Ipomoea spp.); assay: Test A preemergence, morningglory
# Text: as §2
# [14] = tested on: barnyardgrass (Echinochloa crus-galli); assay: Test A preemergence, barnyardgrass
# Procedure, shortened: as §1
# [15] = tested on: barnyardgrass (Echinochloa crus-galli); assay: Test A postemergence, barnyardgrass
# Procedure, shortened: as §1
# [16] = tested on: morningglory (Ipomoea spp.); assay: Test A postemergence, morningglory
# Text: as §2
Compound,"Plant response rating, Foxtail, Giant [1]","Plant response rating, Foxtail, Giant [2]","Plant response rating, Pigweed [3]","Plant response rating, Velvetleaf [4]","Plant response rating, Crabgrass, Large [5]","Plant response rating, Corn [6]","Plant response rating, Wheat [7]","Plant response rating, Corn [8]","Plant response rating, Velvetleaf [9]","Plant response rating, Wheat [10]","Plant response rating, Crabgrass, Large [11]","Plant response rating, Pigweed [12]","Plant response rating, Morningglory [13]","Plant response rating, Barnyardgrass [14]","Plant response rating, Barnyardgrass [15]","Plant response rating, Morningglory [16]"
"O=C(Nc1ccccc1F)N1C(=O)OCC1c1ccc(F)c(F)c1 (stereo not shown) [Compound 3, 4-(3,4-difluorophenyl)-N-(2-fluorophenyl)-2-oxo-3-oxazolidinecarboxamide]",50,40,0,0,90,0,0,0,0,0,80,0,0,0,20,–
O=C1NCC(c2ccccc2)N1C(=O)Nc1ccccc1 (stereo not shown) [Compound 6],0,0,0,0,50,0,0,0,0,0,0,0,0,0,0,0

# From patent US11178873B2, “Cyclic N-carboxamide compounds useful as herbicides” (FMC CORPORATION, priority 2015, dated 2021)
